The record followed here is patent EP1260232A1, “REMEDIES FOR MALIGNANT TUMOR-CONCOMITANT NEUROSIS AND AZOOR OR ANALOGOUS DISEASES THEREOF” (priority 2000, dated 2001).

A short description of data set [1]: Clinical case: therapeutic effect on AZOOR, static visual field examination (Humphrey visual field analyzer). It is filed as in vivo. The settings on record: one AZOOR patient. An excerpt: Case: History of the present illness: The patient became aware of dark and blurred vision in the center of their visual field on September 1, 1999, and visited Ohyachi Kyoritsu Eye Clinic on September 4 in the same year.. […] ERG was subnormal and normal for the right and left eyes, respectively. […] FAG detected mild leakage of fluorescein from the optic disc of the right eye. In view of these observations, optic nerve disorder was suspected and the patient was made to visit a brain surgeon in the neighborhood to receive CT and MRT examinations. However, no abnormality was found. […] To treat the eye symptom, the clinic prescribed oral medications such as drug for ameliorating circulation for a while, but no improvement of visual field was observed. Thus, on October 1, 1999, the patient was referred to the Department of ophthalmology at Sapporo Medical University, School of Medicine for close examination. Results of the first examination: Visual acuity was Vd=1.2 and Vs=1.2. Although pupils were round and equal in size, the right eye was RAPD(+) but no oculomotor abnormalities were observed. […] In the static visual field examination, reduction of the sensitivity in the central visual field was observed. Course of disease: Oral administration of prednisolone (40mg/day) was started on October 1, 1999. […]

The next data set deals with apoptosis caused by CAR. The data set can be described thus: Therapeutic effect on cancer-associated neuropathy: ERG in rats after intravitreal anti-recoverin and anti-hsp70 antibodies. It is filed as in vivo. Particulars: Lewis rats, light for 24 hours; nilvadipine 3.2 mg/kg/day peritoneal for two weeks with antibody infusion into vitreous body; follow-up five weeks; compared with predonine 0.6 µg/kg/day i.m. and cyclosporine A 10 mg/kg/day i.m.; Fig. 1. The method, then: Test animal: Lewis rats (8 weeks of age) Treatment group 5 animals (10 eyes) Control group 5 animals (10 eyes) Photoenvironment: Apoptosis (cell death) was induced under light for 24 hours. Test drugs: Nilvadipine (3.2 mg/kg/day) by peritoneal administration (dissolving solution) polyethylene glycol 400: ethanol: water = 1:1:2 Predonine (0.6 µg/kg/day) by intramuscular injection (dissolving solution) PBS (phosphate buffer solution) Cyclosporine A (10 mg/kg/day) by intramuscular injection (dissolving solution) olive oil Antibodies: anti-recoverin antibody (5 µl/eye) anti-hsp70 antibody (5 µl/eye) Administration method: Test drugs were administered for two weeks along with infusion of antibodies into vitreous body of the eye. Follow-up observation was performed for five weeks after the start of administration. PBS alone was administered to the control group.
In Fig. 1, the vertical axis represents ERG (electroretinogram) amplitude, and the horizontal axis is the lapse of time in weeks. Δ: nilvadipine group; □: predonine group; ◇: cyclosporin A group; and ○: control group.

With `COC(=O)C1=C(C#N)NC(C)=C(C(=O)OC(C)C)C1c1cccc([N+](=O)[O-])c1` (stereo not drawn) [nilvadipine, isopropyl 6-cyano-5-methoxycarbonyl-2-methyl-4-(3-nitrophenyl)-1,4-di hydropyridine-3-carboxylate ester], the “static visual field examination / visual sensitivity” value in data set [1] (two months after start of oral nilvadipine, following 0.3 ml Depo-Medrol sub-Tenon's injection to both eyes, Figs. 4 and 5) is recorded as “remarkable improvement of visual sensitivity”. Also, the “ERG (electroretinogram) amplitude” value in the data set on apoptosis caused by CAR was “more effective than predonine and cyclosporin A”. As for `C[C@]12C=CC(=O)C=C1CC[C@@H]1[C@@H]2[C@@H](O)C[C@@]2(C)[C@H]1CC[C@]2(O)C(=O)CO` [prednisolone], in data set [1] (oral prednisolone 40 mg/day reduced stepwise to 10 mg/day, October-November 1999, Figs. 2 and 3), the visual field entry is recorded as “could not improve the visual field”.
